Test results reported in US8912121B2, “Herbicidal compositions comprising 4-amino-3-chloro-5-fluoro-6-(4-chloro-2-fluoro-3-methoxyphenyl)pyridine-2-carboxylic acid or a derivative thereof and certain PS II inhibitors” (Dow Agrosciences LLC, priority 2012, dated 2014).

How the values were obtained:
Test in all cases: In-water applied mixtures, transplanted paddy rice, greenhouse
[1] = test system: LEFCH (Leptochloa chinensis, Chinese sprangletop); format: in vivo, Leptochloa chinensis (L.) Nees
Description: (§1) Weed seeds or nutlets of the desired test plant species were planted in puddled soil (mud) prepared by mixing a shredded, non-sterilized mineral soil (50.5 percent silt, 25.5 percent clay, and 24 percent sand, with a pH of about 7.6 and an organic matter content of about 2.9 percent) and water at a 1:1 volumetric ratio. The prepared mud was dispensed in 365 mL aliquots into 16-ounce (oz.) non-perforated plastic pots with a surface area of 86.59 square centimeters (cm^2) leaving a headspace of 3 centimeters (cm) in each pot Mud was allowed to dry overnight prior to planting or transplanting. Rice seeds were planted in Sun Gro MetroMix® 306 planting mixture, which typically has a pH of 6.0 to 6.8 and an organic matter content of about 30 percent, in plastic plug trays. Seedlings at the second or third leaf stage of growth were transplanted into 840 mL of mud contained in 32-oz. non-perforated plastic pots with a surface area of 86.59 cm^2 4 days prior to herbicide application. The paddy was created by filling the headspace of the pots with 2.5 to 3 cm of water. When required to ensure good germination and healthy plants, a fungicide treatment and/or other chemical or physical treatment was applied. The plants were grown for 4-22 days in a greenhouse with an approximate 14 h photoperiod which was maintained at about 29° C during the day and 26° C. during the night. Nutrients were added as Osmocote® (19:6:12, N:P:K+ minor nutrients) at 2 g per 16-oz. pot and 4 g per 32-oz. pot. Water was added on a regular basis to maintain the paddy flood, and supplemental lighting was provided with overhead metal halide 1000-Watt lamps as necessary. The plants were employed for testing when they reached the first through fourth true leaf stage.
(§2) Treatments consisted of the acid or esters of 4-amino-3-chloro-5-fluoro-6-(4-chloro-2-fluoro-3-methoxy-phenyl)pyridine-2-carboxylic acid (compound A) each formulated as an SC (suspension concentrate) and various herbicidal components alone and in combination. Forms of compound A were applied on an acid equivalent basis.
(§3) Other herbicidal components were applied on an active ingredient basis and included photosystem II (PSII)-inhibits propanil formulated as […] bentazon-sodium formulated as Basagran®, and simetryne (technical grade material).
(§4) Treatment requirements for each compound or herbicidal component were calculated based upon the rates being tested, the concentration of active ingredient or acid equivalent in the formulation, an application volume of 2 mL per component per pot, and an application area of 86.59 cm^2 per pot.
(§5) For formulated compounds, a measured amount was placed in an individual 100 or 200 mL glass vial and was dissolved in a volume of 1.25% (v/v) Agri-Dex® crop oil concentrate to obtain application solutions.
For technical grade compounds, a weighed amount was placed in an individual 100 to 200 mL glass vial and was dissolved in a volume of acetone to obtain concentrated stock solutions. […] The concentrated stock solutions obtained were diluted with an equivalent volume of an aqueous mixture containing 2.5% (v/v) crop oil concentrate so that the final application solutions contained 1.25% (v/v) crop oil concentrate.
Applications were made by injecting with a pipetter appropriate amounts of the application solutions, individually and sequentially, into the aqueous layer of the paddy. Control plants were treated in the same manner with the solvent blank. Applications were made so that all treated plant material received the same concentrations of acetone and crop oil concentrate.
(§6) The treated plants and control plants were placed in a greenhouse as described above and water was added as needed to maintain a paddy flood. After approximately 3 weeks the condition of the test plants as compared with that of the untreated plants was determined visually and scored on a scale of 0 to 100 percent where 0 corresponds to no injury or growth inhibition and 100 corresponds to complete kill. […]

[2] = test system: FIMMI (Fimbristylis miliacea, globe fringerush); format: in vivo, Fimbristylis miliacea (L.) Vahl; settings: 19 DAA
Description: as §1, §2, §3, §4, §5
For technical grade compounds, a weighed amount was placed in an individual 100 to 200 mL glass vial and was dissolved in a volume of acetone to obtain concentrated stock solutions. […]
as §6

[3] = test system: ECHCG (Echinochloa crusgalli, barnyardgrass); format: in vivo, Echinochloa crusgalli (L.) Beauv.; settings: 21 DAA
Description: as §1, with “stage. […]” for “stage.”
as §4
For formulated compounds, a measured amount was placed in an individual 100 or 200 mL glass vial and was dissolved in a volume of 1.25% (v/v) Agri-Dex® crop oil concentrate to obtain application solutions. […]
as §6

Compound | Visual Weed Control (%) Obs ([1]; 8.75 g ae/ha, 21 DAA) | Visual Weed Control (%) Obs ([1]; 17.5 g ae/ha, 21 DAA) | Visual Weed Control (%) Obs ([1]; 35 g ae/ha, 21 DAA) | Visual Weed Control (%) Obs ([1]; 70 g ae/ha, 20 DAA) | Visual Weed Control (%) Obs ([2]; 8 g ae/ha) | Visual Weed Control (%) Obs ([2]; 16 g ae/ha) | Visual Weed Control (%) Obs ([2]; 32 g ae/ha) | Visual Weed Control (%) Obs ([1]; 42.4 g ae/ha, 20 DAA) | Visual Weed Control (%) Obs ([1]; 84.8 g ae/ha, 20 DAA) | Visual Weed Control (%) Obs ([3]; 8.75 g ae/ha) | Visual Weed Control (%) Obs ([3]; 17.5 g ae/ha)
COc1c(Cl)ccc(-c2nc(C(=O)OCc3ccccc3)c(Cl)c(N)c2F)c1F [Compound A Benzyl Ester, benzyl ester of 4-amino-3-chloro-5-fluoro-6-(4-chloro-2-fluoro-3-methoxy-phenyl)pyridine-2-carboxylic acid] | 20% | 30% | 55% | 80% | 0% | 0% | 85% | – | – | – | –
COc1c(Cl)ccc(-c2nc(C(=O)O)c(Cl)c(N)c2F)c1F [Compound A Acid, 4-amino-3-chloro-6-(4-chloro-2-fluoro-3-methoxyphenyl)-5-fluoropyridine-2-carboxylic acid] | 0% | 0% | – | – | – | – | – | 15% | 55% | 0% | 0%
